For the experiment, the target named is T1, Cav2.2 (Homo sapiens, UniProt Q00975).
T1 construct: expressed in transfected cells; host or cells: HEK-293T/17 (transient, FuGENE 6)
In words: HEK assay (whole-cell patch clamp, transiently transfected HEK-293T/17 cells, pulses P1 and P5). It counts as cell-based. The following applies: holding potential −100 mV. On the procedure:
HEK-293T/17 cells were transiently transfected in a similar manner as described in FuGENE 6 Package Insert Version 7, April 2002, Roche Applied Science, Indianapolis, Ind. The cells were plated at 2.5×10^5 cells in 2 mL in a 6-well plate, incubated for one night, and achieved a ˜30-40% confluence. In a small sterile tube, sufficient serum-free medium was added as diluent for FuGENE Transfection Reagent (Roche Applied Science, Indianapolis, Ind.) to a total volume of 100 μL. To this medium was added 3 μL of FuGENE 6 Reagent. The mixture was tapped gently to mix. To the prediluted FuGENE 6 Reagent was added 2 μg of DNA solution (0.8-2.0 μg/μL). The DNA/Fugene 6 mixture was gently pipeted to mix the contents and incubated for about 15 minutes at room temperature. The complex mixture was then added to the HEK-293T/17 cells, distributed around the well, and swirled to ensure even dispersal. The cells were returned to the incubator for 24 hours. The transfected cells were then replated at density 2.5×10^5 in a 35 mm dish with 5 glass coverslips and grew in low serum (1%) media for 24 hours. Coverslips with isolated cells were then transferred into a chamber, and calcium channel (e.g., L-type, N-type, etc.) current or other currents for counter screening were recorded from the transiently transfected HEK-293T/17 cells.
The whole-cell voltage clamp configuration of the patch clamp technique was employed to evaluate voltage-dependent calcium currents essentially as described by Thompson and Wong (1991), J. Physiol., 439: 671-689, the entire disclosure of which is herein incorporated by reference. To record calcium channel (e.g., L-type, N-type, etc.) currents for evaluation of inhibitory potency of compounds (steady-state concentration-response analysis), five pulses of 20-30 ms voltage steps to about +10 mV (the peak of the current voltage relationship) were delivered at five Hz every 30 second from a holding potential at −100 mV. In order to obtain an estimate of the degree of use-dependent block of the test compounds, IC50 values were determined at the first and fifth pulse of the train (P1 and P5, respectively, in Table 2). Compound evaluations were carried out essentially as described by Sah D. W. and Bean B. P. (1994), Mol. Pharmacol., 45:84-92, the entire disclosure of which is herein incorporated by reference.
(In general: The patch-clamp technique gives a direct electrical read-out from membranes.)

[1] abbreviates: fifth pulse (P5) of 5 Hz train, read-out: HEK Cav2.2 P5 IC50.
[2] abbreviates: first pulse (P1) of 5 Hz train, read-out: HEK Cav2.2 P1 IC50.

The values below come from US20100267697A1, “ION CHANNEL MODULATORS” (Wyeth, priority 2006, published 2010).

Structures can show the parent of a compound that is named as a salt. Where two headings read alike, the source gives them in different places.

T1 sequence (Q00975 whole entry): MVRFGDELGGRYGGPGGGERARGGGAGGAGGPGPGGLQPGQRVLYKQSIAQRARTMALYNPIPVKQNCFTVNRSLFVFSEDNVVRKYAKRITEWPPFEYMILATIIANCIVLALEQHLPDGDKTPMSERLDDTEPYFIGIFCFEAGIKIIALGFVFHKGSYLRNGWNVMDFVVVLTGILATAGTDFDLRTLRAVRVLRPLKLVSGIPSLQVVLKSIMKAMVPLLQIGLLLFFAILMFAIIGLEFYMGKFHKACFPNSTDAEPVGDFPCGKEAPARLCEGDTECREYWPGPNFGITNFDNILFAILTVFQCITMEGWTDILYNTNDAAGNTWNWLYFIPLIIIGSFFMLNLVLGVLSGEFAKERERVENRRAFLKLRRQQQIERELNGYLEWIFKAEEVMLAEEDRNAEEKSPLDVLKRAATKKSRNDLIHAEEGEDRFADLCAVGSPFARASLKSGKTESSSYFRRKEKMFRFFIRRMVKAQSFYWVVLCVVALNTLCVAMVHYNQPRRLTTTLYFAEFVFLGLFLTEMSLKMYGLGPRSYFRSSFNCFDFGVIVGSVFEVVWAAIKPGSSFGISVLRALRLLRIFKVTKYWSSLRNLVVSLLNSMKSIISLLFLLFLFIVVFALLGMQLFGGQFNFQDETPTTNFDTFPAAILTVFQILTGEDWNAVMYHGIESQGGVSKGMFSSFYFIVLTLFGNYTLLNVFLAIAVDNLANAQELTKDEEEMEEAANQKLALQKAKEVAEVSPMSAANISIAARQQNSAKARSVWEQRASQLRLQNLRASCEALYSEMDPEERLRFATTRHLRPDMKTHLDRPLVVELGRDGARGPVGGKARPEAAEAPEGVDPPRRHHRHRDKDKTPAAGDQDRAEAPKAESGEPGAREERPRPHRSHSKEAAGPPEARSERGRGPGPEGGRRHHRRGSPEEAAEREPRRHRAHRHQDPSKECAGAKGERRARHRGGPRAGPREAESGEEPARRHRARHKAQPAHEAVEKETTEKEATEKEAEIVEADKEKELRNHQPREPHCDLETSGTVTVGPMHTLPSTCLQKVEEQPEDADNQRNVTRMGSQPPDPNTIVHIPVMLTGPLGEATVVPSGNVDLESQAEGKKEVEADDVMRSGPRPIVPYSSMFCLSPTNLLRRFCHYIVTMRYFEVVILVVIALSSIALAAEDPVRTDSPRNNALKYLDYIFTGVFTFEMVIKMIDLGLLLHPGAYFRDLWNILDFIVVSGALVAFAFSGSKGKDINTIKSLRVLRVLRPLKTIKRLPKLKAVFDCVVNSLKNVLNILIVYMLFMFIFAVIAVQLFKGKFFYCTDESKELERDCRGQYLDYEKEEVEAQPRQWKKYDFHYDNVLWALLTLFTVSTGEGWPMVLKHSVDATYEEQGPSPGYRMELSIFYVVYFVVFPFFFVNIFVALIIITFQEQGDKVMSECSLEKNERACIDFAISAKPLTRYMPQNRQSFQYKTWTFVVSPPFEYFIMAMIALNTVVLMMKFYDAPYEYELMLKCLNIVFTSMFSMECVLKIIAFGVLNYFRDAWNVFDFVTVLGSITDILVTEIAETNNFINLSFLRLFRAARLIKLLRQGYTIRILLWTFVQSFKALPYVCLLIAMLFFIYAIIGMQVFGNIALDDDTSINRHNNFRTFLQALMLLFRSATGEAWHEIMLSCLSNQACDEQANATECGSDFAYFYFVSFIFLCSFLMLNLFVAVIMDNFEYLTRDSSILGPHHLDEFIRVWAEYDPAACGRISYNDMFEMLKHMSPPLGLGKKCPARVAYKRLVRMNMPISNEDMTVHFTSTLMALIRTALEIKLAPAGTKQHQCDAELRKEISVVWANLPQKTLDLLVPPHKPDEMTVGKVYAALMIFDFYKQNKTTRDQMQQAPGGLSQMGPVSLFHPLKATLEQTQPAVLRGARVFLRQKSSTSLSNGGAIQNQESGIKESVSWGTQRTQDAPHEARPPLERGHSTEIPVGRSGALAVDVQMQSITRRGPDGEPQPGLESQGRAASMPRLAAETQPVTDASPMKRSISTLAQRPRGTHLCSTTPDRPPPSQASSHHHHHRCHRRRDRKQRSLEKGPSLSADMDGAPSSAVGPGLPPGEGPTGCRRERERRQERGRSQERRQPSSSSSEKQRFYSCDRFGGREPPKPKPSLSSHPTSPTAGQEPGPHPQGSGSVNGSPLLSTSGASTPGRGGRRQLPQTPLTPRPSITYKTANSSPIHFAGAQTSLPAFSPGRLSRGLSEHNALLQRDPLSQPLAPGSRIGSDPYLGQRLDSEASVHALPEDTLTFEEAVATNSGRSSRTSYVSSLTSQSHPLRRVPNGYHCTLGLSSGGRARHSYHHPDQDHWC
T1 sequence (P54284 whole entry partner): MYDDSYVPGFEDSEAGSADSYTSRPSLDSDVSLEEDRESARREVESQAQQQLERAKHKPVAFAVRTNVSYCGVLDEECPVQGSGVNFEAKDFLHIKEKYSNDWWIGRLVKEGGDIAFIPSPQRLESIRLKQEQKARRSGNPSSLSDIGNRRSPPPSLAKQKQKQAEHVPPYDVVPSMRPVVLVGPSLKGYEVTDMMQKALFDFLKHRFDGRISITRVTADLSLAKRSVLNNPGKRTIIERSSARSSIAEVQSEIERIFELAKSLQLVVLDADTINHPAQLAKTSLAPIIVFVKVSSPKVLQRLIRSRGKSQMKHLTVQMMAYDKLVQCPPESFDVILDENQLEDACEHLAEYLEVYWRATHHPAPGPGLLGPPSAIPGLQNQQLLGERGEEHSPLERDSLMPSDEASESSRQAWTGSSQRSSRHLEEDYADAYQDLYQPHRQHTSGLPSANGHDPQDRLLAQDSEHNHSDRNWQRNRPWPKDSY
T1 sequence (P54289 25-946 partner limits assumed): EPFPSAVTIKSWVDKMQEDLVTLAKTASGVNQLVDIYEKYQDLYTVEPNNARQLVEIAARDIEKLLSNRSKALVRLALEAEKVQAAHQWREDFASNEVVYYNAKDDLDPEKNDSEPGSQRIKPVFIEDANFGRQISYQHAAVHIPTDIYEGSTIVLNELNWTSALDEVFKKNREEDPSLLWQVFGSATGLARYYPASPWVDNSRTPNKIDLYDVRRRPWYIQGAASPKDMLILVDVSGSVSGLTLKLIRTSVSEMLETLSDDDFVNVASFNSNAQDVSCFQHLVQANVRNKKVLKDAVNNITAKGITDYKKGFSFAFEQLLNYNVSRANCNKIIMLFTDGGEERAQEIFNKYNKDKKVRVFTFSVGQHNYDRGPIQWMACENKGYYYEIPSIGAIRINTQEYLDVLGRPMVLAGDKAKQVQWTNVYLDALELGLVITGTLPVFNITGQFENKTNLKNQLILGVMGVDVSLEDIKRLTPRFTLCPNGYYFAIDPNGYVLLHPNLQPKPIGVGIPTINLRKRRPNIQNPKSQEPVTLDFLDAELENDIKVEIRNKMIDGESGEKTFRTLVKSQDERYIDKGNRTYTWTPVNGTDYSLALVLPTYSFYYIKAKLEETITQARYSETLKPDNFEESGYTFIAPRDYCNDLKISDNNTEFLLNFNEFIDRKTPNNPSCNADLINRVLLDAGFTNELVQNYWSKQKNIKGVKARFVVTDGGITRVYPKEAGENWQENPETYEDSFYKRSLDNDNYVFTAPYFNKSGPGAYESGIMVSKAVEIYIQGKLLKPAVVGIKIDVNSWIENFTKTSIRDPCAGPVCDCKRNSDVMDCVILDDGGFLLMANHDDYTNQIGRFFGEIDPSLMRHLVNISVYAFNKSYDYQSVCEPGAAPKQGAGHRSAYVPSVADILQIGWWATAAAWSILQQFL
T1 sequence (P54289 947-1103 partner limits assumed): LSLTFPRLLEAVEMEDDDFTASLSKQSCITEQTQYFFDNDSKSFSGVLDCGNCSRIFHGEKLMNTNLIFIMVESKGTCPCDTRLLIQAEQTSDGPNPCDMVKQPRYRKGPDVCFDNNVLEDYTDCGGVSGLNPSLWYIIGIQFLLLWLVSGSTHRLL

What is called IC50 is the concentration that gives 50% inhibition. For `CC(C)(C)C(=O)N(Cc1ccc(N2CCCC2)nc1)c1ccc(F)cc1` [Compound 42, N-(4-Fluorophenyl)-2,2-dimethyl-N-(6-pyrrolidin-1-yl-pyridin-3-ylmethyl)-propionamide], the IC50 by setting is: under setting [1], 7.4 µM; under setting [2], 11.6 µM.
On the same counts, the results for `CCN(CC)c1ccc(CN(C(=O)C(C)(C)n2cc(CN(C)C)nn2)c2ccc(F)cc2)cn1` [Compound 54, N-(6-Diethylamino-pyridin-3-ylmethyl)-2-(4-dimethylaminomethyl-[1,2,3]triazol-1-yl)-N-(4-fluorophenyl)-isobutyramide] are 5.3 µM and 8.9 µM.
On the same counts, the results for `CCN(CC)C1CCN(c2ccc(CN(C(=O)C(C)(C)C)c3ccc(F)cc3)cn2)C1` (stereo not shown) [Compound 52, N-[6-(3-Diethylamino-pyrrolidin-1-yl)-pyridin-3-ylmethyl]-N-(4-fluorophenyl)-2,2-dimethyl-propionamide] are 6.3 µM and 17.1 µM.
On the same counts, the results for `CCN(c1ccc(CN(C(=O)C(C)(C)C)c2ccc(F)cc2)cc1)C1CC1` [Compound 87, N-[4-(Cyclopropyl(ethyl)amino)-benzyl]-N-(4-fluorophenyl)-2,2-dimethyl-propionamide] are 1.4 µM and 4.2 µM.
On to `CC(C)(C)C(=O)N(Cc1ccc(NC2CC2)nc1)c1ccc(F)cc1` [Compound 78, N-(6-Cyclopropylamino-pyridin-3-ylmethyl)-N-(4-fluorophenyl)-2,2-dimethyl-propionamide], for which the IC50 under setting [1] amounted to 7.2 µM and the IC50 under setting [2] came to 14.2 µM.
Turning to `O=C(C1CC1)N(Cc1csc(N2CCCCC2)n1)c1ccc(F)cc1` [Compound 107, Cyclopropanecarboxylic acid (4-fluorophenyl)-(2-piperidin-1-yl-thiazol-4-ylmethyl)-amide], the IC50 reads like this: under setting [1], 2.5 µM; under setting [2], 11.1 µM.
`CCN(CC)c1ccc(CN(C(=O)C(C)(C)CC)c2ccc(N(C)C)cc2)cc1` [Compound 90, N-(4-Diethylaminobenzyl)-N-(4-dimethylamino-phenyl)-2,2-dimethyl-butyramide]: the IC50 reads like this: under setting [1], 0.8 µM; under setting [2], 2.2 µM.
The like results for `CN(Cc1ccco1)c1ccc(CN(C(=O)C(C)(C)C)c2ccc(F)cc2)cn1` [Compound 66, N-(4-Fluorophenyl)-N-[6-(furan-2-ylmethyl-methyl-amino)-pyridin-3-ylmethyl]-2,2-dimethyl-propionamide] were, in that order, 1.1 µM and 3.5 µM.
As for `COc1ccc(N(C)c2nc(CN(C(=O)C(C)(C)C)c3ccc(F)cc3)cs2)cc1` [Compound 80, N-(4-Fluorophenyl)-N-{2-[(4-methoxy-phenyl)-methyl-amino]-thiazol-4-ylmethyl}-2,2-dimethyl-propionamide], the IC50 turned out to be 0.6 µM under setting [1] and 2.4 µM under setting [2].
On the same counts, the results for `CCOC(=O)c1cn(C(C)(C)C(=O)N(Cc2ccc(N(CC)CC)nc2)c2ccc(F)cc2)nn1` [Compound 45, 1-{1-[(6-Diethylamino-pyridin-3-ylmethyl)-(4-fluorophenyl)-carbamoyl]-1-methyl-ethyl}-1H-[1,2,3]triazole-4-carboxylic acid ethyl ester] are 2.5 µM and 10.6 µM.
On the same counts, the results for `CCN(CC)c1ccc(CN(C(=O)/C=C/C(C)C)c2ccc(N(C)C)cc2)cc1` [Compound 94, 4-Methyl-pent-2-enoic acid (4-Diethylaminobenzyl)-(4-dimethylamino-phenyl)-amide] are 0.7 µM and 1.8 µM.
For the molecule `CCN(c1ccc(CN(C(=O)C(C)(C)C)c2ccc(N(C)C)cc2)cn1)C1CC1` [Compound 100, N-[6-(Cycloproyl(ethyl)amino)-pyridin-3-ylmethyl]-N-(4-dimethylamino-phenyl)-2,2-dimethyl-propionamide], the IC50 is, setting by setting: under setting [1], 4.3 µM; under setting [2], 8 µM.
The like results for `CCN(CC)c1ccc(CN(C(=O)CCC(C)C)c2ccc(N)cc2)cc1` [Compound 98, 4-Methyl-pentanoic acid (4-aminophenyl)-(4-Diethylaminobenzyl)-amide] were, in that order, 1.9 µM and 5.2 µM.
As for `CC(C)(C)C(=O)N(Cc1cnc(N2CCCC2)s1)c1ccc(F)cc1` [Compound 1, N-(4-fluorophenyl)-2,2-dimethyl-N-(2-pyrrolidin-1-yl-thiazol-5-ylmethyl)-propionamide hydrochloride], the IC50 is, setting by setting: under setting [1], 8.3 µM; under setting [2], 20.3 µM.
On the same counts, the results for `CN1CCN(c2ncc(CN(C(=O)C(C)(C)C)c3ccc(F)cc3)s2)CC1` [Compound 76, N-(4-Fluorophenyl)-2,2-dimethyl-N-[2-(4-methyl-piperazin-1-yl)-thiazol-5-ylmethyl]-propionamide] are 5.2 µM and 29 µM.
The like results for `CCN(CC)c1ccc(CN(C(=O)C(C)(C)C)c2ccc(F)cc2C)cn1` [Compound 36, N-(6-Diethylamino-pyridin-3-ylmethyl)-N-(4-fluoro-2-methyl-phenyl)-2,2-dimethyl-propionamide] were, in that order, 1.3 µM and 3.5 µM.
On the same counts, the results for `CC(C)(C)C(=O)N(Cc1ccc(N2CC[C@@H](Oc3ccccn3)C2)nc1)c1ccc(F)cc1` [Compound 55, N-(4-Fluorophenyl)-2,2-dimethyl-N-{6-[3-(pyridin-2-yloxy)-pyrroldiin-1-yl]-pyridin-3-ylmethyl}-propionamide] are 0.6 µM and 1.7 µM.
Regarding `CCN(c1ccc(CN(C(=O)C2Cc3ccccc3CN2)c2ccc(F)cc2)cn1)C1CC1` (stereo not shown) [Compound 14, 1,2,3,4-tetrahydro-isoquinoline-3-carboxylic acid [6-(Cyclopropyl(ethyl)amino)-pyridin-3-ylmethyl]-(4-fluorophenyl)-amide dihydrochloride], the half-inhibitory concentration (IC50) was 0.6 µM under setting [1] and 10.1 µM under setting [2].
On the same counts, the results for `CCN(c1cccc(CN(C(=O)C(C)(C)C)c2ccc(F)cc2)n1)C1CC1` [Compound 92, N-[6-(Cyclopropyl(ethyl)amino)-pyridin-2-ylmethyl]-N-(4-fluorophenyl)-2,2-dimethyl-propionamide] are 0.8 µM and 1.8 µM.
Regarding `COc1ccc(OCc2nc(CN(C(=O)C(C)(C)C)c3ccc(F)cc3)cs2)cc1` [Compound 68, N-(4-Fluorophenyl)-N-[2-(4-methoxy-phenoxymethyl)-thiazol-4-ylmethyl]-2,2-dimethyl-propionamide], the half-inhibitory concentration (IC50) under setting [1] came out at 1.2 µM and the IC50 under setting [2] was found to be 3.2 µM.
On the same counts, the results for `CCN(CC)c1nc(CN(C(=O)CCC(C)C)c2ccc(N(C)C)cc2)cs1` [Compound 95, 4-Methyl-pentanoic acid (2-diethylamino-thiazol-4-ylmethyl)-(4-dimethylamino-phenyl)-amide] are 2.3 µM and 7.9 µM.
The like results for `CCN(CC)c1nc(CN(C(=O)C(C)(C)CC)c2ccc(N(C)C)cc2)cs1` [Compound 96, N-(2-Diethylamino-thiazol-4-ylmethyl)-N-(4-dimethyalmino-phenyl)-2,2-dimethyl-butyramide] were, in that order, 1.1 µM and 4.5 µM.
The like results for `CCN(c1ccc(CN(C(=O)C2CCCN2Cc2ccccc2)c2ccc(F)cc2)cn1)C1CC1` (stereo not shown) [Compound 115, 1-Benzyl-pyrrolidine-2-carboxylic acid [6-(Cyclopropyl(ethyl)amino)-pyridin-3-ylmethyl]-(4-fluorophenyl)-amide] were, in that order, 0.6 µM and 2.7 µM.
